According to the supplement of paper PMC11451515:

Tested on: NOMO1
Assay: cell viability relative to DMSO control; higher = less cytotoxic
Conditions: 48 h
Procedure, shortened: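 Leukemia cells (NOMO1 or SEM, 500 cells/well; P12-Ichikawa, 1000 cells/well) were seeded in 5 μl in 1536-well plates after at least four passages of adaptation to each medium. They received library compounds in DMSO by pin dosing, 11 threefold points from 47 μM to 0.79 nM. Luminescence with CellTiter-Glo One was read after 48 h at 37°C. Viability is stated per plate relative to DMSO wells, with cell-free wells as background.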

[1] = HPLM + 10% dialyzed FBS, 0.000781 µM
[2] = HPLM + 10% dialyzed FBS, 0.00234 µM
[3] = HPLM + 10% dialyzed FBS, 0.00702 µM
[4] = HPLM + 10% dialyzed FBS, 0.0211 µM
[5] = HPLM + 10% dialyzed FBS, 0.0632 µM
[6] = HPLM + 10% dialyzed FBS, 0.19 µM
[7] = HPLM + 10% dialyzed FBS, 0.569 µM
[8] = HPLM + 10% dialyzed FBS, 1.71 µM
[9] = HPLM + 10% dialyzed FBS, 5.12 µM
[10] = HPLM + 10% dialyzed FBS, 15.4 µM
[11] = HPLM + 10% dialyzed FBS, 46.1 µM
[12] = RPMI 5 mM glucose + 10% dialyzed FBS, 0.000781 µM
[13] = RPMI 5 mM glucose + 10% dialyzed FBS, 0.00234 µM
[14] = RPMI 5 mM glucose + 10% dialyzed FBS, 0.00702 µM
[15] = RPMI 5 mM glucose + 10% dialyzed FBS, 0.0211 µM
[16] = RPMI 5 mM glucose + 10% dialyzed FBS, 0.0632 µM
[17] = RPMI 5 mM glucose + 10% dialyzed FBS, 0.19 µM
[18] = RPMI 5 mM glucose + 10% dialyzed FBS, 0.569 µM
[19] = RPMI 5 mM glucose + 10% dialyzed FBS, 1.71 µM
[20] = RPMI 5 mM glucose + 10% dialyzed FBS, 5.12 µM
[21] = RPMI 5 mM glucose + 10% dialyzed FBS, 15.4 µM
[22] = RPMI 5 mM glucose + 10% dialyzed FBS, 46.1 µM
[23] = RPMI 5 mM glucose + 10% FBS, 0.000781 µM
[24] = RPMI 5 mM glucose + 10% FBS, 0.00234 µM
[25] = RPMI 5 mM glucose + 10% FBS, 0.00702 µM
[26] = RPMI 5 mM glucose + 10% FBS, 0.0211 µM
[27] = RPMI 5 mM glucose + 10% FBS, 0.0632 µM
[28] = RPMI 5 mM glucose + 10% FBS, 0.19 µM
[29] = RPMI 5 mM glucose + 10% FBS, 0.569 µM
[30] = RPMI 5 mM glucose + 10% FBS, 1.71 µM
[31] = RPMI 5 mM glucose + 10% FBS, 5.12 µM
[32] = RPMI 5 mM glucose + 10% FBS, 15.4 µM
[33] = RPMI 5 mM glucose + 10% FBS, 46.1 µM

SMILES | cell viability [1] [%] | cell viability [2] [%] | cell viability [3] [%] | cell viability [4] [%] | cell viability [5] [%] | cell viability [6] [%] | cell viability [7] [%] | cell viability [8] [%] | cell viability [9] [%] | cell viability [10] [%] | cell viability [11] [%] | cell viability [12] [%] | cell viability [13] [%] | cell viability [14] [%] | cell viability [15] [%] | cell viability [16] [%] | cell viability [17] [%] | cell viability [18] [%] | cell viability [19] [%] | cell viability [20] [%] | cell viability [21] [%] | cell viability [22] [%] | cell viability [23] [%] | cell viability [24] [%] | cell viability [25] [%] | cell viability [26] [%] | cell viability [27] [%] | cell viability [28] [%] | cell viability [29] [%] | cell viability [30] [%] | cell viability [31] [%] | cell viability [32] [%] | cell viability [33] [%]
CO/N=C(/C(=O)N[C@@H]1C(=O)N2C(C(=O)O)=C(Cn3ccc(=N)n3CCO)CS[C@H]12)c1csc(N)n1 | 104 | 115 | 131 | 136 | 130 | 116 | 120 | 130 | 137 | 133 | 166 | 112 | 117 | 129 | 133 | 138 | 140 | 130 | 123 | 153 | 138 | 134 |  |  |  |  |  |  |  |  |  |  | 
C[C@]\1(CCS\C(=N1)N)C2=CC(=C(F)C=C2F)C3=CN=CN=C3 | 95.4 | 106 | 103 | 95.2 | 118 | 112 | 98.2 | 91.3 | 38.1 | 25 | 3.54 | 80.4 | 107 | 98.5 | 103 | 109 | 106 | 100 | 96.2 | 26.4 | 19.8 | 22.5 | 105 | 107 | 101 | 100 | 98 | 101 | 100 | 60.6 | 20.3 | 20.1 | 15
COC1=CC=C2Nc3cc(Cl)ccc3C(N=C3C=C(CN4CCCC4)C(=O)C(CN4CCCC4)=C3)=C2N1 |  |  |  |  |  |  |  |  |  |  |  |  |  |  |  |  |  |  |  |  |  |  | 105 | 103 | 120 | 110 | 133 | 127 | 125 | 135 | 116 | 119 | 119
CC(=O)N1CCN(c2ccc(OCc3nn(C)c(C)c3-c3cccc4c(CCCOc5cc(C)c(Cl)c(C)c5)c(C(=O)O)n(Cc5cccnc5)c34)cc2)CC1 | 111 | 108 | 132 | 114 | 126 | 130 | 120 | 130 | 131 | 120 | 84.6 | 115 | 112 | 122 | 135 | 135 | 133 | 139 | 142 | 156 | 137 | 124 | 111 | 115 | 124 | 150 | 130 | 136 | 146 | 126 | 120 | 134 | 94.6
CN(C)Cc1ccc(-c2nc3cccc4c3n2CCNC4=O)cc1 | 91.1 | 99.5 | 115 | 116 | 124 | 107 | 109 | 121 | 129 | 112 | 99.4 | 98 | 102 | 90.8 | 110 | 115 | 119 | 110 | 116 | 126 | 124 | 118 | 87.2 | 108 | 94.7 | 103 | 98.3 | 102 | 111 | 106 | 97.2 | 103 | 104
CCOC(=O)Nc1ccc(NCc2ccc(F)cc2)cc1N | 112 | 120 | 126 | 129 | 116 | 110 | 121 | 107 | 99.1 | 65.1 | 31.5 | 115 | 133 | 119 | 119 | 115 | 123 | 110 | 107 | 107 | 89.8 | 33.9 | 107 | 112 | 117 | 116 | 117 | 118 | 112 | 113 | 105 | 94.3 | 24.6
O=C/1\C=C(/OC(=C1)/C2=C3SC4=C(SC3=CC=C2)C=CC=C4)N5CCOCC5 | 93.3 | 94.6 | 103 | 32.3 | 112 | 103 | 122 | 105 | 84 | 90.1 | 82 | 81.3 | 93.6 | 98.1 | 33.1 | 88.2 | 104 | 107 | 99.3 | 83.7 | 81.2 | 86.2 | 79.8 | 93.2 | 91.1 | 19.4 | 92 | 91.9 | 94.7 | 96.7 | 89.1 | 89.3 | 90.3
O=C1Nc2ccccc2/C1=C1\Nc2ccccc2C1=O | 105 | 116 | 112 | 112 | 99.1 | 97.7 | 110 | 96.4 | 112 | 102 | 90.5 | 98.2 | 95.9 | 109 | 100 | 88.1 | 93.9 | 89.4 | 94.3 | 89.4 | 89.1 | 84.9 | 93 | 87.4 | 97.6 | 103 | 103 | 94.7 | 93.7 | 88.7 | 96.2 | 85.6 | 86.9
